Values after ≈ are worked out from the molar mass of the structure shown.

Results on five molecules are retold here after ChEMBL document CHEMBL1129595, “Potent 6-desfluoro-8-methylquinolones as new lead compounds in antibacterial chemotherapy” (J Med Chem, 1996).

The test system of one test is Streptococcus pneumoniae. The test is described as follows: In vitro antibacterial activity against Streptococcus pneumoniae I 0.43. It counts as functional.
Test [1] deals with Staphylococcus aureus. The test is described as follows: In vitro antibacterial activity against Staphylococcus aureus ATCC 29213. Format: functional.
A further test deals with Haemophilus influenzae. The test is described as follows: In vitro antibacterial activity against Haemophilus influenzae. Format: functional.
Test [2] can be described thus: Mean MIC against gram positive. Format: functional.
Test [3] deals with Staphylococcus aureus. In words: In vitro antibacterial activity against Staphylococcus aureus CPX-R OBT 687. Format: functional.
The subject of test [4] is Escherichia coli. In words: In vitro antibacterial activity against Escherichia coli 120. Format: functional.
Test [5] deals with Staphylococcus aureus. The test is described as follows: In vitro antibacterial activity against Staphylococcus aureus MPR 5. It counts as functional.
The subject of another test is Enterobacter cloacae. In words: In vitro antibacterial activity against Enterobacter cloacae OMNFI 174. Format: functional.
The subject of another test is Proteus vulgaris. The test is described as follows: In vitro antibacterial activity against Proteus vulgaris CNUR 6. Format: functional.
Test [6] deals with Staphylococcus aureus. The test is described as follows: In vitro antibacterial activity against Staphylococcus aureus M-R POMM 6214. It counts as functional.
In test [7] the test system is Escherichia coli. In words: In vitro antibacterial activity against Escherichia coliCPX-R OBT 431. Format: functional.
The next test deals with Klebsiella pneumoniae. In words: In vitro antibacterial activity against Klebsiella pneumoniae ATCC 10031. Format: functional.
For test [8], the system named is Enterococcus faecalis. The test is described as follows: In vitro antibacterial activity against Enterococcus faecalis LEP Br. It counts as functional.
The test system of another test is Streptococcus pyogenes. In words: In vitro antibacterial activity against Streptococcus pyogenes OMNFI BI. Format: functional.
Test [9] concerns Escherichia coli. The test is described as follows: In vitro antibacterial activity against Escherichia coli ATCC 25922. Format: functional.
Test [10] has as its system Pseudomonas aeruginosa. The test is described as follows: In vitro antibacterial activity against Pseudomonas aeruginosa […] 9027. It counts as functional.
Test [11] relates to Enterococcus faecalis. In words: In vitro antibacterial activity against Enterococcus faecalis UCMC 39690. It counts as functional.
A further test deals with DNA gyrase (Escherichia coli, UniProt P0AES4+P0AES6). In words: Inhibitory effect against Escherichia coli Gyrase in Supercoiling assay. Format: protein-complex assay.
Test [12] in a line: Mean MIC against gram negative. Format: functional.
The next test has as its system Proteus mirabilis. The test is described as follows: In vitro antibacterial activity against Proteus mirabilis OBT 505. It counts as functional.
The subject of test [13] is Pseudomonas aeruginosa. In words: In vitro antibacterial activity against Pseudomonas aeruginosa OBT 307. Format: functional.
Test [14] in a line: Mean MIC Against gram positive. Format: functional.

A word on the IC50: it is the midpoint of a concentration-inhibition curve. Read a low IC50 as inhibition by little substance. As for `Cc1c(N2CCc3ccccc3C2)c(F)cc2c(=O)c(C(=O)O)cn(C3CC3)c12`, the MIC in the test with Streptococcus pneumoniae was 0.25 µg/mL (≈ 0.637 µM); with Staphylococcus aureus [1], below 0.016 µg/mL; against Haemophilus influenzae, below 0.016 µg/mL; in [2], 0.074 µg/mL (≈ 0.189 µM); against Staphylococcus aureus [3], 1 µg/mL (≈ 2.55 µM); against Escherichia coli [4], 0.25 µg/mL (≈ 0.637 µM). Also, the MIC against Staphylococcus aureus [5] was below 0.016 µg/mL; in the test with Enterobacter cloacae, 0.5 µg/mL (≈ 1.27 µM); in the test on Proteus vulgaris it was 4 µg/mL (≈ 10.2 µM); with Staphylococcus aureus [6], below 0.016 µg/mL; in the test on Escherichia coli [7], above 16 µg/mL; in the test on Klebsiella pneumoniae, 0.06 µg/mL (≈ 0.153 µM). Also, the MIC in the test on Enterococcus faecalis [8] was determined as 0.5 µg/mL (≈ 1.27 µM); in the test with Streptococcus pyogenes, 0.03 µg/mL (≈ 0.0764 µM); against Escherichia coli [9], 0.125 µg/mL (≈ 0.319 µM); in the test on Pseudomonas aeruginosa [10], 4 µg/mL (≈ 10.2 µM); against Enterococcus faecalis [11], 0.06 µg/mL (≈ 0.153 µM); in test [12], 0.869 µg/mL (≈ 2.21 µM). Further, the MIC worked out at 4 µg/mL (≈ 10.2 µM) in the test with Proteus mirabilis and 16 µg/mL (≈ 40.8 µM) against Pseudomonas aeruginosa [13]. The same molecule gave a 50% inhibitory concentration (IC50) against DNA gyrase of 7.64 µM.

In the case of `O=C(O)c1cn(C2CC2)c2cc(N3CCc4ccccc4C3)c(F)cc2c1=O`, the MIC in the test with Streptococcus pneumoniae was 0.25 µg/mL (≈ 0.661 µM); against Staphylococcus aureus [1], below 0.016 µg/mL; against Haemophilus influenzae it was below 0.016 µg/mL; in [2], 0.21 µg/mL (≈ 0.555 µM); against Staphylococcus aureus [3], 8 µg/mL (≈ 21.1 µM); in the test with Escherichia coli [4] it was 0.25 µg/mL (≈ 0.661 µM). Besides, the MIC was below 0.016 µg/mL in the test with Staphylococcus aureus [5]; 1 µg/mL (≈ 2.64 µM) against Enterobacter cloacae; above 16 µg/mL against Proteus vulgaris; 0.25 µg/mL (≈ 0.661 µM) in the test on Staphylococcus aureus [6]; above 16 µg/mL in the test with Escherichia coli [7]; 0.125 µg/mL (≈ 0.33 µM) with Klebsiella pneumoniae. Moreover, the MIC was 0.25 µg/mL (≈ 0.661 µM) in the test with Enterococcus faecalis [8]; 2 µg/mL (≈ 5.29 µM) in the test with Streptococcus pyogenes; 0.25 µg/mL (≈ 0.661 µM) against Escherichia coli [9]; 4 µg/mL (≈ 10.6 µM) against Pseudomonas aeruginosa [10]; 0.06 µg/mL (≈ 0.159 µM) in the test with Enterococcus faecalis [11]; 1.15 µg/mL (≈ 3.04 µM) in [12]. The results for the MIC against Proteus mirabilis and against Pseudomonas aeruginosa [13] were 4 µg/mL (≈ 10.6 µM) and 8 µg/mL (≈ 21.1 µM), respectively. Moreover, at DNA gyrase, the half-maximal inhibitory concentration (IC50) was 28.5 µM.

Regarding `Cc1c(N2CCCCC2)c(N)cc2c(=O)c(C(=O)O)cn(C3CC3)c12`, the MIC with Streptococcus pneumoniae is 2 µg/mL (≈ 5.86 µM); in the test with Staphylococcus aureus [1], 0.05 µg/mL (≈ 0.146 µM); in the test on Haemophilus influenzae, below 0.016 µg/mL; in test [2] it was 0.376 µg/mL (≈ 1.1 µM); against Staphylococcus aureus [3], 8 µg/mL (≈ 23.4 µM); in the test with Escherichia coli [4], 0.5 µg/mL (≈ 1.46 µM). Also, the MIC with Staphylococcus aureus [5] was below 0.016 µg/mL; in the test on Enterobacter cloacae it was 1 µg/mL (≈ 2.93 µM); with Proteus vulgaris, above 16 µg/mL; against Staphylococcus aureus [6] it was 0.125 µg/mL (≈ 0.366 µM); with Escherichia coli [7], above 16 µg/mL; in the test on Klebsiella pneumoniae, below 0.016 µg/mL. The MIC is 0.5 µg/mL (≈ 1.46 µM) in the test on Enterococcus faecalis [8]; 0.5 µg/mL (≈ 1.46 µM) against Streptococcus pyogenes; 0.125 µg/mL (≈ 0.366 µM) against Escherichia coli [9]; 4 µg/mL (≈ 11.7 µM) with Pseudomonas aeruginosa [10]; 1 µg/mL (≈ 2.93 µM) against Enterococcus faecalis [11]; 1 µg/mL (≈ 2.94 µM) in [12]. For the same molecule, the results for the MIC against Proteus mirabilis and in the test with Pseudomonas aeruginosa [13] were 4 µg/mL (≈ 11.7 µM) and 16 µg/mL (≈ 46.9 µM), respectively. In addition, at DNA gyrase, half-maximal inhibition (IC50) required 9.37 µM.

For the molecule `O=C(O)c1cn(C2CC2)c2cc(N3CCCCC3)c(F)cc2c1=O`, the MIC with Streptococcus pneumoniae is 1 µg/mL (≈ 3.03 µM); against Staphylococcus aureus [1], 0.03 µg/mL (≈ 0.0908 µM); in the test on Haemophilus influenzae, below 0.016 µg/mL; with Staphylococcus aureus [3], above 16 µg/mL; in the test on Escherichia coli [4], 0.25 µg/mL (≈ 0.757 µM); in the test with Staphylococcus aureus [5], 0.03 µg/mL (≈ 0.0908 µM). For the same molecule, the MIC is 0.5 µg/mL (≈ 1.51 µM) in the test on Enterobacter cloacae; above 16 µg/mL with Proteus vulgaris; 0.495 µg/mL (≈ 1.5 µM) in test [14]; 0.25 µg/mL (≈ 0.757 µM) against Staphylococcus aureus [6]; above 16 µg/mL against Escherichia coli [7]; below 0.016 µg/mL with Klebsiella pneumoniae. Also, the MIC is 0.5 µg/mL (≈ 1.51 µM) against Enterococcus faecalis [8]; 8 µg/mL (≈ 24.2 µM) with Streptococcus pyogenes; 0.125 µg/mL (≈ 0.378 µM) in the test with Escherichia coli [9]; 4 µg/mL (≈ 12.1 µM) against Pseudomonas aeruginosa [10]; 0.25 µg/mL (≈ 0.757 µM) against Enterococcus faecalis [11]; 0.71 µg/mL (≈ 2.15 µM) in test [12]. Also, the MIC with Proteus mirabilis was determined as 2 µg/mL (≈ 6.05 µM); with Pseudomonas aeruginosa [13] it was 4 µg/mL (≈ 12.1 µM). The molecule also gave an IC50 at DNA gyrase of 97.2 µM.

Consider `Cc1c(N2CCN(C)CC2)c(N)cc2c(=O)c(C(=O)O)cn(C3CC3)c12`, for which the MIC in the test with Streptococcus pneumoniae is 8 µg/mL (≈ 22.4 µM); in the test on Staphylococcus aureus [1] it was 1 µg/mL (≈ 2.81 µM); in the test on Haemophilus influenzae it was 0.03 µg/mL (≈ 0.0842 µM); in test [2], 3.36 µg/mL (≈ 9.44 µM); against Staphylococcus aureus [3] it was above 16 µg/mL; against Escherichia coli [4], 0.06 µg/mL (≈ 0.168 µM). Further, the MIC against Staphylococcus aureus [5] was 1 µg/mL (≈ 2.81 µM); in the test on Enterobacter cloacae it was 0.125 µg/mL (≈ 0.351 µM); in the test with Proteus vulgaris, 8 µg/mL (≈ 22.4 µM); in the test with Staphylococcus aureus [6], 4 µg/mL (≈ 11.2 µM); in the test on Escherichia coli [7], above 16 µg/mL; against Klebsiella pneumoniae, 0.03 µg/mL (≈ 0.0842 µM). The MIC with Enterococcus faecalis [8] is 2 µg/mL (≈ 5.61 µM); against Streptococcus pyogenes, 4 µg/mL (≈ 11.2 µM); against Escherichia coli [9], 0.03 µg/mL (≈ 0.0842 µM); in the test on Pseudomonas aeruginosa [10] it was 2 µg/mL (≈ 5.61 µM); in the test with Enterococcus faecalis [11], 4 µg/mL (≈ 11.2 µM); in test [12] it was 0.459 µg/mL (≈ 1.29 µM). Also, the MIC in the test with Proteus mirabilis was 1 µg/mL (≈ 2.81 µM); against Pseudomonas aeruginosa [13] it was 8 µg/mL (≈ 22.4 µM). This molecule also had an IC50 against DNA gyrase of 10.7 µM.
